Laboratory results as given in ChEMBL document CHEMBL4138213, “Synthesis and biological characterization of ubenimex-fluorouracil conjugates for anti-cancer therapy” (Eur J Med Chem, 2018).
Active and inactive are the calls of the source. No cut-off for these calls is given here.

Tests used:
PLC-PRF-5 [1] = experiment: Antiproliferative activity against human PLC/PRF/5 cells after 48 hrs by MTT assay; settings: PLC-PRF-5, 48 h
PLC-PRF-5 [2] = experiment: Antiproliferative activity against human PLC/PRF/5 cells in presence of ubenimex after 48 hrs by MTT assay; type: functional, cell-based; settings: PLC-PRF-5, 48 h
U-266 [3] = experiment: Antiproliferative activity against human U266 cells after 48 hrs by MTT assay; settings: U-266, 48 h
A549 [4] = experiment: Antiproliferative activity against human A549 cells after 48 hrs by MTT assay; settings: A549, 48 h
[5] = Antiproliferative activity against human H7402 cells after 48 hrs by MTT assay; settings: H7402, 48 h
U-937 [6] = experiment: Antiproliferative activity against human U937 cells in presence of ubenimex after 48 hrs by MTT assay; type: functional, cell-based; settings: U-937, 48 h
U-266 [7] = experiment: Antiproliferative activity against human U266 cells in presence of ubenimex after 48 hrs by MTT assay; type: functional, cell-based; settings: U-266, 48 h
PLC-PRF-5 [8] = experiment: Induction of apoptosis in human PLC/PRF/5 cells assessed as early apoptotic cells at 20 uM after 48 hrs by annexin-V-FITC/propidium iodide staining-based flow cytometric method (reference value: 5.82%); type: functional
PLC-PRF-5 [9] = experiment: Induction of apoptosis in human PLC/PRF/5 cells assessed as late apoptotic cells at 20 uM after 48 hrs by annexin-V-FITC/propidium iodide staining-based flow cytometric method (reference value: 0.341%); type: functional
PLC-PRF-5 [10] = experiment: Induction of apoptosis in human PLC/PRF/5 cells assessed as necrotic cells at 20 uM after 48 hrs by annexin-V-FITC/propidium iodide staining-based flow cytometric method (reference value: 0.106%); type: functional
PLC-PRF-5 [11] = experiment: Induction of apoptosis in human PLC/PRF/5 cells assessed as viable cells at 20 uM after 48 hrs by annexin-V-FITC/propidium iodide staining-based flow cytometric method (reference value: 93.7%); type: functional; settings: PLC-PRF-5, 48 h, read-out: Activity
PLC-PRF-5 [12] = experiment: Induction of apoptosis in human PLC/PRF/5 cells assessed as early apoptotic cells at 20 uM in presence of ubenimex after 48 hrs by annexin-V-FITC/propidium iodide staining-based flow cytometric method (reference value: 5.82%); type: functional
PLC-PRF-5 [13] = experiment: Induction of apoptosis in human PLC/PRF/5 cells assessed as late apoptotic cells at 20 uM in presence of ubenimex after 48 hrs by annexin-V-FITC/propidium iodide staining-based flow cytometric method (reference value: 0.341%); type: functional
PLC-PRF-5 [14] = experiment: Induction of apoptosis in human PLC/PRF/5 cells assessed as necrotic cells at 20 uM in presence of ubenimex after 48 hrs by annexin-V-FITC/propidium iodide staining-based flow cytometric method (reference value: 0.106%); type: functional
PLC-PRF-5 [15] = experiment: Induction of apoptosis in human PLC/PRF/5 cells assessed as viable cells at 20 uM in presence of ubenimex after 48 hrs by annexin-V-FITC/propidium iodide staining-based flow cytometric method (reference value: 93.7%); type: functional; settings: PLC-PRF-5, 48 h, read-out: Activity
PLC-PRF-5 [16] = experiment: Downregulation of CD13 expression in human PLC/PRF/5 cells at 10 uM after 48 hrs by flow cytometric method; type: functional, cell-based
PLC-PRF-5 [17] = experiment: Downregulation of CD13 expression in human PLC/PRF/5 cells at 10 uM in presence of ubenimex after 48 hrs by flow cytometric method; type: functional, cell-based
[18] = Drug level in human plasma treated with (5-fluoro-2,4-dioxo-3,4-dihydropyrimidin1(2H)-yl)methyl-2-((S)-2-((2S,3R)-3-amino-2-hydroxy-4-phenylbut-anamido)-4-methylpentanamido)acetate hydrochloride at 4 mg/ml after 8 hrs by HPLC method; type: ADME, cell-free
[19] = Drug level in Wistar rat plasma treated with (5-fluoro-2,4-dioxo-3,4-dihydropyrimidin1(2H)-yl)methyl-2-((S)-2-((2S,3R)-3-amino-2-hydroxy-4-phenylbut-anamido)-4-methylpentanamido)acetate hydrochloride assessed as carboxylesterase-mediated compound formation at 80 mg/kg, iv by HPLC-MS/MS analysis; type: ADME, organism-based; settings: in vivo
H22 = experiment: Antitumor activity against 5-FU-resistant […] cells xenografted in Kunming mouse at 20 mg/kg, ip after 14 days; type: functional, organism-based
[20] = AUC (0 to infinity) in Wistar rat at 80 mg/kg, iv after 0.05 to 24 hrs by HPLC-MS/MS analysis; type: ADME, organism-based; parameters: dose 80 mg/kg, time infinity, route intravenous; settings: in vivo
[21] = MRT (0 to infinity) in Wistar rat at 80 mg/kg, iv after 0.05 to 24 hrs by HPLC-MS/MS analysis; type: ADME, organism-based; settings: Wistar, in vivo
Rattus norvegicus = experiment: VRT (0 to infinity) in Wistar rat at 80 mg/kg, iv after 0.05 to 24 hrs by HPLC-MS/MS analysis; type: ADME, organism-based; settings: in vivo
[22] = Apparent clearance in Wistar rat at 80 mg/kg, iv after 0.05 to 24 hrs by HPLC-MS/MS analysis; type: ADME, organism-based; settings: in vivo, read-out: CL(app) (converted)
[23] = Volume of distribution during elimination phase in Wistar rat at 80 mg/kg, iv after 0.05 to 24 hrs by HPLC-MS/MS analysis; type: ADME, organism-based; settings: in vivo, read-out: Vz
[24] = Terminal Half life in Wistar rat at 80 mg/kg, iv after 0.05 to 24 hrs by HPLC-MS/MS analysis; type: ADME, organism-based; settings: Wistar, in vivo, read-out: beta t1/2 (converted)
[25] = Cmax in Wistar rat at 80 mg/kg, iv after 0.05 to 24 hrs by HPLC-MS/MS analysis; type: ADME, organism-based; parameters: dose 80 mg/kg, route intravenous; settings: in vivo
cells [26] = settings: Homo sapiens, ES-2, 48 h
Description: Antiproliferative activity against human ES2 cells after 48 hrs by MTT assay

cells [27] = settings: Homo sapiens, ES-2, 48 h; remark: listed apart in the source
U-937 [28] = experiment: cells; settings: Homo sapiens, U-937, 48 h
Description: Antiproliferative activity against human U937 cells after 48 hrs by MTT assay

HCT-116 [29] = experiment: cells; settings: Homo sapiens, HCT-116, 48 h
HepG2 [30] = experiment: cells; settings: Homo sapiens, HepG2, 48 h
HCT-116 [31] = experiment: cells; settings: Homo sapiens, HCT-116, 48 h; remark: listed apart in the source
cells [32] = settings: Homo sapiens, H7402, 48 h
HepG2 [33] = experiment: cells; settings: Homo sapiens, HepG2, 48 h; remark: listed apart in the source
PLC-PRF-5 [34] = experiment: Antiproliferative activity against human PLC/PRF/5 cells in presence of 5-FU after 48 hrs by MTT assay; type: functional, cell-based; settings: PLC-PRF-5, 48 h
[35] = Antiproliferative activity against human ES2 cells in presence of 5-FU after 48 hrs by MTT assay; settings: ES-2, 48 h
U-937 [36] = experiment: Antiproliferative activity against human U937 cells in presence of 5-FU after 48 hrs by MTT assay; settings: U-937, 48 h
U-266 [37] = experiment: Antiproliferative activity against human U266 cells in presence of 5-FU after 48 hrs by MTT assay; type: functional, cell-based; settings: U-266, 48 h
HCT-116 [38] = experiment: Antiproliferative activity against human HCT116 cells in presence of 5-FU after 48 hrs by MTT assay; settings: HCT-116, 48 h
A549 [39] = experiment: Antiproliferative activity against human A549 cells in presence of 5-FU after 48 hrs by MTT assay; settings: A549, 48 h
[40] = Antiproliferative activity against human H7402 cells in presence of 5-FU after 48 hrs by MTT assay; settings: H7402, 48 h
HepG2 [41] = experiment: Antiproliferative activity against human HepG2 cells in presence of 5-FU after 48 hrs by MTT assay; type: functional, cell-based; settings: HepG2, 48 h
PLC-PRF-5 [42] = experiment: Induction of apoptosis in human PLC/PRF/5 cells assessed as early apoptotic cells at 20 uM in presence of 5-FU after 48 hrs by annexin-V-FITC/propidium iodide staining-based flow cytometric method (reference value: 5.82%); type: functional
PLC-PRF-5 [43] = experiment: Induction of apoptosis in human PLC/PRF/5 cells assessed as late apoptotic cells at 20 uM in presence of 5-FU after 48 hrs by annexin-V-FITC/propidium iodide staining-based flow cytometric method (reference value: 0.341%); type: functional
PLC-PRF-5 [44] = experiment: Induction of apoptosis in human PLC/PRF/5 cells assessed as necrotic cells at 20 uM in presence of 5-FU after 48 hrs by annexin-V-FITC/propidium iodide staining-based flow cytometric method (reference value: 0.106%); type: functional
PLC-PRF-5 [45] = experiment: Induction of apoptosis in human PLC/PRF/5 cells assessed as viable cells at 20 uM in presence of 5-FU after 48 hrs by annexin-V-FITC/propidium iodide staining-based flow cytometric method (reference value: 93.7%); type: functional; settings: PLC-PRF-5, 48 h, read-out: Activity
PLC-PRF-5 [46] = experiment: Downregulation of CD13 expression in human PLC/PRF/5 cells at 10 uM in presence of 5-FU after 48 hrs by flow cytometric method; type: functional, cell-based
[47] = Drug level in Wistar rat plasma treated with (5-fluoro-2,4-dioxo-3,4-dihydropyrimidin1(2H)-yl)methyl-2-((S)-2-((2S,3R)-3-amino-2-hydroxy-4-phenylbut-anamido)-4-methylpentanamido)acetate hydrochloride assessed as peptidase-mediated compound formation at 80 mg/kg, iv by HPLC-MS/MS analysis; type: ADME, organism-based; settings: in vivo
HUVEC = settings: Homo sapiens, 30 uM

SMILES | IC50 (PLC-PRF-5 [1]) [µM] | IC50 (U-266 [3]) [µM] | Activity (PLC-PRF-5 [8]) [%] | Activity (PLC-PRF-5 [9]) [%] | Activity (PLC-PRF-5 [10]) [%] | viability at 20 µM (PLC-PRF-5 [11]) [%] | Activity (PLC-PRF-5 [16]) | AUC(0-inf) [20] [ng·h/mL] | MRT inf [21] [h] | VRT (Rattus norvegicus) [hr2] | clearance [22] [mL/min/kg] | Vd [23] [L/kg] | half-life [24] [h] | Cmax [25] [ng/mL] | IC50 (U-937 [28]) [µM] | IC50 (HCT-116 [29]) [µM] | IC50 (HepG2 [30]) [µM] | other results
O=c1[nH]cc(F)c(=O)[nH]1 [FLUOROURACIL] | 35.7 | 66.2 | 20.1 | 6.8 | 0 | 73.1 | inactive | 13600 | 2.48 | 4.205 | 98.4 | 20.1 | 2.35 | 3810 | 28.8 | 53.8 | 18.4 | IC50 (PLC-PRF-5 [2]): 22.8 µM; IC50 (A549 [4]): 17 µM; IC50 [5]: 21.9 µM; IC50 (U-937 [6]): 9.56 µM; IC50 (U-266 [7]): 43.5 µM; Activity (PLC-PRF-5 [12]): 33.3%; Activity (PLC-PRF-5 [13]): 2.38%; Activity (PLC-PRF-5 [14]): 0%; viability at 20 µM (PLC-PRF-5 [15]): 64.3%; Activity (PLC-PRF-5 [17]): Active; Drug metabolism [18]: Metabolite_Detected; Drug metabolism [19]: Metabolite_Detected; Activity (H22): inactive; IC50 (cells [26]): 71.5 µM; IC50 (cells [27]): 37.1 µM; IC50 (HCT-116 [31]): 44.1 µM; IC50 (cells [32]): 17.6 µM; IC50 (HepG2 [33]): 14.5 µM
CC(C)C[C@H](NC(=O)[C@@H](O)[C@H](N)Cc1ccccc1)C(=O)O [UBENIMEX] | > 500 | > 500 | 13 | 3.59 | 0.01 | 83.4 | Active | 11500 | 3.44 | 13.087 | 116 | 34.2 | 3.4 | 2300 | 143 | 358 | > 500 | IC50 (PLC-PRF-5 [34]): 22.8 µM; IC50 [35]: 37.1 µM; IC50 (U-937 [36]): 9.56 µM; IC50 (U-266 [37]): 43.5 µM; IC50 (HCT-116 [38]): 44.1 µM; IC50 (A549 [39]): 15.9 µM; IC50 [40]: 17.6 µM; IC50 (HepG2 [41]): 14.5 µM; Activity (PLC-PRF-5 [42]): 33.3%; Activity (PLC-PRF-5 [43]): 2.38%; Activity (PLC-PRF-5 [44]): 0%; viability at 20 µM (PLC-PRF-5 [45]): 64.3%; Activity (PLC-PRF-5 [46]): Active; Drug metabolism [47]: Metabolite_Detected; inhibition (HUVEC): Active
